Consider four compounds from US5677292A, “Derivatives of estra 1,3,5(10)triene-17-one,3-amino compounds and their use” (Duquesne University of the Holy Ghost, priority 1996, dated 1997).

“Also recorded” adds a separate entry of the source.

The subject of assay [1] is estrone-induced uterine weight gain in ovariectomized rats. The assay can be described thus: Ovariectomized rat uterine weight gain assay: anti-estrogenicity (block of estrone-induced uterine weight gain). The assay is classed as in vivo.
Procedure: Estrogenicity and antiestrogenicity were assessed using an ovariectomized rat uterine weight gain assay. […] Ovariectomized rats were maintained two weeks prior to treatment to allow their uteri to regress to basal size. Treatments were given by intraperitoneal injection in a 1% gelatin, 0.9% NaCl solution at a volume of 0.5 ml. Steroids were dissolved in ethanol to 1 mg/ml then further diluted into the injection solution to the desired concentration. All treatments were continued for seven days. At the termination of the experiments, animals were sacrificed by cervical dislocation under ether anesthesia. Body weight was taken, then uteri were excised, stripped of fat, and weighed to the nearest 0.1 mg. In vivo, estradiol and estrone can induce uterine weight gain in female ovariectomized rats.
(§1) Steroids were administered at 25 μg/day. For determination of antiestrogenicity, three treatment groups were established: vehicle control, estrone, and estrone E1 NH2.
Antiestrogenicity was assessed as the ability of the compound to block estrone-induced uterine weight gain in ovariectomized rats. […] Control animals received vehicle only (0.9% NaCl, 1% gelatin, 500 μl. i.p. injection).
Assay [2] has as its system uterine weight of ovariectomized rats. The assay is described as follows: Ovariectomized rat uterine weight gain assay: estrogenicity. To be noted: for Estrogenicity: increase in uterine weight of ovariectomized rats compared with control / Uterine weight compared with other groups (control and E1 -NH2): 25 μg/day, i.p., seven days; for Estrogenicity: increase in uterine weight of ovariectomized rats compared with control: n=5; for Uterine weight compared with other groups (control and E1 -NH2): Student-Newman-Keuls test.
Procedure: Estrogenicity and antiestrogenicity were assessed using an ovariectomized rat uterine weight gain assay. […] Ovariectomized rats were maintained two weeks prior to treatment to allow their uteri to regress to basal size. Treatments were given by intraperitoneal injection in a 1% gelatin, 0.9% NaCl solution at a volume of 0.5 ml. Steroids were dissolved in ethanol to 1 mg/ml then further diluted into the injection solution to the desired concentration. All treatments were continued for seven days. At the termination of the experiments, animals were sacrificed by cervical dislocation under ether anesthesia. Body weight was taken, then uteri were excised, stripped of fat, and weighed to the nearest 0.1 mg.
as §1
A rat uterine weight gain assay was used to determine if E1 -NH2 had estrogenic or anti-estrogenic activity. […] Data are means ±SEM, n=5 for all groups. Control animals received vehicle only (0.9% NaCl, 1% gelatin, 500 μl,i.p. injection).

Assay [3] has as its target T1, rat uterine estrogen receptor (Rattus norvegicus, UniProt P06211).
T1 sequence (P06211 1-600): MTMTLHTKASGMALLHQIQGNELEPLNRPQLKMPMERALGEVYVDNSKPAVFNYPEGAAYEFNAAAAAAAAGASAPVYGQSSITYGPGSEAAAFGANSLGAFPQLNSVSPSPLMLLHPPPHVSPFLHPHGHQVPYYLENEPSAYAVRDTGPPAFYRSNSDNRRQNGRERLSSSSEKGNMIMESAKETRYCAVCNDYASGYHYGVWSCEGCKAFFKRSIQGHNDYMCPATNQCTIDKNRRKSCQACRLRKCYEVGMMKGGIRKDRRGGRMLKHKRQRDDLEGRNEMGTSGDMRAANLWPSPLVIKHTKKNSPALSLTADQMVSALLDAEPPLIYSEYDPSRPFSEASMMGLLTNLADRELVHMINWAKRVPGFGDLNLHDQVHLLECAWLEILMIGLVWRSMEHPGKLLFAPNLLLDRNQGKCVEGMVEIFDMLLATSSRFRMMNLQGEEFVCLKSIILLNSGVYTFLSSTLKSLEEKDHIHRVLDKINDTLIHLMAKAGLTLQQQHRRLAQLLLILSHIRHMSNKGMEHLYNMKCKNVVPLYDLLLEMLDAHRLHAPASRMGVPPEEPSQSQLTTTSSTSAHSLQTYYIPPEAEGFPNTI
The assay can be described thus: Estrogen receptor binding, displacement of 3H-estradiol in rat uterine cytosol. As to the method:
Specific binding was calculated as total binding minus nonspecific binding.

The test system of assay [4] is nitrosomethyl urea-induced tumor cells in castrated rats. To be noted: cited from earlier work.

For `C[C@]12CC[C@@H]3c4ccc(N)cc4CC[C@H]3[C@@H]1CCC2=O` [E1 -NH2, estra-1,3,5(10)-triene-17-one, 3-amine], the “Anti-estrogenicity: block of estrone-induced uterine growth” value in assay [1] (E1 -NH2 100 μg/day with estrone 2 μg/day, i.p., seven days, n=5) was “did not block estrone-induced uterine growth”. The “Anti-estrogenicity (conclusion)” value in assay [1] (FIGS. 4 and 5) is “neither estrogenic nor anti-estrogenic”. In addition, the “Estrogenicity: increase in uterine weight of ovariectomized rats compared with control” value (from here on “Estrogenicity: increase”) in assay [2] is “did not cause a significant increase in uterine weight”. In addition, the “Estrogenicity (conclusion)” value in assay [2] (FIGS. 4 and 5) is on record as “neither estrogenic nor anti-estrogenic”. The “Competition for / interaction with estrogen receptor” value in assay [3] (rat uterine cytosol, 0.01, 0.1 and 1 μM competitor) is listed as “did not compete for estrogen receptor at the same level as estrone; also recorded: does not interact to any great extent with an estrogen receptor”. Also, the inhibition at 1 µM in assay [3] (read-out: Displacement of specific 3H-estradiol binding) turned out to be 60%.

For `C[C@]12CC[C@@H]3c4ccc(O)cc4CC[C@H]3[C@@H]1CC[C@@H]2O` [estradiol, estradiol-17β], in assay [2], the “Estrogenicity: increase” value is reported as “significantly increased uterine weight above control levels”; the “Uterine weight compared with other groups (control and E1 -NH2)” value was “significantly (p≤0.05) higher than other groups”.

Take `C[C@]12CC[C@@H]3c4ccc(O)cc4CC[C@H]3[C@@H]1CCC2=O` [estrone]: in assay [2], the “Estrogenicity: increase” value is on record as “significantly increased uterine weight above control levels”; the “Uterine weight compared with other groups (control and E1 -NH2)” value is listed as “significantly (p≤0.05) higher than other groups”.

For the compound estrone sulfate, in assay [4], the “Stimulation of tumor cell growth” value is “stimulate growth of nitrosomethyl urea-induced tumor cells in castrated rats”.
